Eight compounds from PubChem BioAssay AID1259407 (Chemical Carcinogenesis Research Information System (CCRIS), 2018) can be followed below.

Molecules are shown by their SMILES. Active and inactive are the calls of the source. No rule for the calls is given here.

For this data set, the system named is CCRIS mutagenicity, Ames/micronucleus/aberration tests. As to the kind of experiment: CCRIS mutagenicity studies.
The mark [1] stands for this setting: Test System: AMES SALMONELLA TYPHIMURIUM, Strain/Indicator: TA100, Metabolic Activation: NONE, Method: STANDARD PLATE.
Setting [2] is: Test System: AMES SALMONELLA TYPHIMURIUM, Strain/Indicator: TA1535, Metabolic Activation: RAT, LIVER, S-9, AROCLOR 1254, Method: STANDARD PLATE.
[3] abbreviates: Test System: AMES SALMONELLA TYPHIMURIUM, Strain/Indicator: TA98, Metabolic Activation: NONE, Method: STANDARD PLATE.
Setting [4] is: Test System: AMES SALMONELLA TYPHIMURIUM, Strain/Indicator: TA98, Metabolic Activation: RAT, LIVER, S-9, AROCLOR 1254, Method: STANDARD PLATE.

Take `CCN(N=O)C(N)=O`: the mutagenic call (End Point: IN VITRO CHROMOSOMAL ABERRATIONS, Test System: CHINESE HAMSTER V79-E CELLS, Metabolic Activation: NONE) is “inactive; negative”; the mutagenic call (End Point: IN VITRO MICRONUCLEUS, Test System: CHL/IU CELLS, Metabolic Activation: NONE) is “active; positive”; the mutagenic call (End Point: IN VIVO MICRONUCLEUS, Test System: BLOOD ERYTHROCYTES, Species: MOUSE, Strain/Sex: CD-1/MALE, Route: ORAL) was “active; positive”; the mutagenic call (Test System: AMES SALMONELLA TYPHIMURIUM, Strain/Indicator: TA98, Metabolic Activation: HAMSTER, LIVER, S-9, AROCLOR 1254 (30%), Method: PREINCUBATION) was “active; positive”; the mutagenic call (Test System: AMES SALMONELLA TYPHIMURIUM, Strain/Indicator: TA98, Metabolic Activation: NONE, Method: PREINCUBATION) was “active; positive”; the mutagenic call (Test System: AMES SALMONELLA TYPHIMURIUM, Strain/Indicator: TA98, Metabolic Activation: RAT, LIVER, S-9, AROCLOR 1254 (30%), Method: PREINCUBATION) is “active; positive”. In addition, the mutagenic call was “active; positive” (Test System: AMES SALMONELLA TYPHIMURIUM, Strain/Indicator: TA100, Metabolic Activation: HAMSTER, LIVER, S-9, AROCLOR 1254 (30%), Method: PREINCUBATION); “active; positive” (Test System: AMES SALMONELLA TYPHIMURIUM, Strain/Indicator: TA100, Metabolic Activation: NONE, Method: PREINCUBATION); “active; positive” under setting [1]; “active; positive” (Test System: AMES SALMONELLA TYPHIMURIUM, Strain/Indicator: TA100, Metabolic Activation: RAT, LIVER, S-9, AROCLOR 1254 (30%), Method: PREINCUBATION); “active; positive” (Test System: AMES SALMONELLA TYPHIMURIUM, Strain/Indicator: TA100, Metabolic Activation: RAT, LIVER, S-9, AROCLOR 1254, Method: PREINCUBATION); “active; positive” (Test System: AMES SALMONELLA TYPHIMURIUM, Strain/Indicator: TA102, Metabolic Activation: RAT, LIVER, S-9, AROCLOR 1254, Method: PREINCUBATION). The mutagenic call (Test System: AMES SALMONELLA TYPHIMURIUM, Strain/Indicator: TA104, Metabolic Activation: RAT, LIVER, S-9, AROCLOR 1254, Method: PREINCUBATION) is “active; positive”; the mutagenic call (Test System: AMES SALMONELLA TYPHIMURIUM, Strain/Indicator: TA1535, Metabolic Activation: NONE) is “active; positive”; the mutagenic call (Test System: AMES SALMONELLA TYPHIMURIUM, Strain/Indicator: TA1535, Metabolic Activation: NONE, Method: PREINCUBATION) was “active; positive”; the mutagenic call under setting [2] was “active; positive”; the mutagenic call (Test System: AMES SALMONELLA TYPHIMURIUM, Strain/Indicator: YG7104, Metabolic Activation: NONE, Method: PREINCUBATION) is “active; positive”; the mutagenic call (Test System: AMES SALMONELLA TYPHIMURIUM, Strain/Indicator: YG7108, Metabolic Activation: NONE, Method: PREINCUBATION) is “active; positive”. Further, the mutagenic call runs as follows: (Test System: AMES SALMONELLA TYPHIMURIUM, Strain/Indicator: YG7112, Metabolic Activation: NONE, Method: PREINCUBATION) “active; positive”; (Test System: AMES SALMONELLA TYPHIMURIUM, Strain/Indicator: YG7113, Metabolic Activation: NONE, Method: PREINCUBATION) “active; positive”; (Test System: CHINESE HAMSTER OVARY, Strain/Indicator: CHO-K1-BH4 (HGPRT), Metabolic Activation: NONE, Method: STANDARD PLATE) “active; positive”; (Test System: CHINESE HAMSTER V-79, Strain/Indicator: V-79/6-THIOGUANINE, Metabolic Activation: NONE, Method: FLASK ASSAY) “active; positive”; (Test System: E. COLI B, Strain/Indicator: H/R30R, Metabolic Activation: NONE) “active; positive”; (Test System: E. COLI B, Strain/Indicator: HS30R, Metabolic Activation: NONE) “active; positive”. Further, the mutagenic call (Test System: E. COLI, Strain/Indicator: WP2, Metabolic Activation: NONE, Method: STANDARD PLATE) was “active; positive”; the mutagenic call (Test System: E. COLI, Strain/Indicator: WP2 UVRA, Metabolic Activation: NONE, Method: STANDARD PLATE) is “active; positive”; the mutagenic call (Test System: LacZ plasmid mouse (C57BL/6J transgenic), Strain/Indicator: LacZ Mutant frequency, Method: Bone marrow and liver harvested 35 days after last dose) was “active; positive”; the mutagenic call (Test System: LacZ transgenic mouse (Muta Mouse), Strain/Indicator: LacZ Mutant frequency, Method: Bone marrow and liver harvested 35 days after last dose) is “active; positive”; the mutagenic call (Test System: MOUSE LYMPHOMA, Strain/Indicator: L5178Y(TK+/TK-), Metabolic Activation: NONE, Method: MICROWELL) was “active; positive”; the mutagenic call (Test System: UDS HUMAN FIBROBLASTS, Strain/Indicator: THY INCORP (NON-S-PHASE), Metabolic Activation: NONE, Method: LIQUID SCINTILLATION COUNTING) was “active; positive”. For the same compound, the mutagenic call was “active; positive” (Test System: UDS HUMAN TRACHEAL EPITHELIAL CELLS, Strain/Indicator: THY INCORP, Metabolic Activation: NONE, Method: AUTORADIOGRAPHY) and “active; positive” (Test System: UDS MOUSE SPERMATOGONIAL AND POSTSPERMATOGONIAL CELLS IN VIVO, Strain/Indicator: THYMIDINE INCORPORATION, Metabolic Activation: NONE, Method: AUTORADIOGRAPHY).

As for `Brc1ccc2c(c1)[C@H]1O[C@H]1[C@H]1CCCC[C@H]21`, the mutagenic call by setting is: under setting [3], “inactive; negative”; under setting [1], “inactive; negative”.

For the compound `CC(=O)Nc1ccc(S(=O)(=O)c2ccc(NC(C)=O)cc2)cc1`, the mutagenic call reads like this: under setting [3], “inactive; negative”; (Test System: AMES SALMONELLA TYPHIMURIUM, Strain/Indicator: TA98, Metabolic Activation: RAT, LIVER, S-9, PCB, Method: STANDARD PLATE) “inactive; negative”; under setting [1], “inactive; negative”; (Test System: AMES SALMONELLA TYPHIMURIUM, Strain/Indicator: TA100, Metabolic Activation: RAT, LIVER, S-9, PCB, Method: STANDARD PLATE) “inactive; negative”.

Take `CNC(=O)Oc1cc2ccccc2c2ccccc12`: the mutagenic call by setting is: under setting [4], “inactive; negative”; under setting [2], “active; positive”.

Regarding `O=[N+]([O-])c1cccc(CO/N=C/c2nc3cc([N+](=O)[O-])ccc3n2Cc2ccc(F)cc2)c1`, the mutagenic call was “inactive; negative” under setting [3]; “inactive; negative” (Test System: AMES SALMONELLA TYPHIMURIUM, Strain/Indicator: TA98, Metabolic Activation: RAT, LIVER, S-9, PHENOBARBITAL AND BETA-NAPHTHOFLAVONE, Method: STANDARD PLATE); “inactive; negative” under setting [1]; “inactive; negative” (Test System: AMES SALMONELLA TYPHIMURIUM, Strain/Indicator: TA100, Metabolic Activation: RAT, LIVER, S-9, PHENOBARBITAL AND BETA-NAPHTHOFLAVONE, Method: STANDARD PLATE).

`CCN(C(C)=O)c1ccc2c(c1)Cc1ccccc1-2`: the mutagenic call under setting [4] is “active; positive”.

`Clc1cccc2oc3ccccc3c12`: the mutagenic call was “inactive; negative” under setting [3]; “inactive; negative” (Test System: AMES SALMONELLA TYPHIMURIUM, Strain/Indicator: TA98, Metabolic Activation: RAT, LIVER, S-9, PHENOBARBITAL AND NAPHTHOFLAVONE, Method: STANDARD PLATE); “inactive; negative” under setting [1]; “inactive; negative” (Test System: AMES SALMONELLA TYPHIMURIUM, Strain/Indicator: TA100, Metabolic Activation: RAT, LIVER, S-9, PHENOBARBITAL AND NAPHTHOFLAVONE, Method: STANDARD PLATE).

Turning to `Cc1c2ccccc2c(CO)c2ccc3ccccc3c12`, the mutagenic call is, setting by setting: (Test System: AMES SALMONELLA TYPHIMURIUM, Strain/Indicator: TA98, Metabolic Activation: HUMAN, LIVER, CYTOSOL, PAPS, Method: PREINCUBATION) “active; positive”; (Test System: AMES SALMONELLA TYPHIMURIUM, Strain/Indicator: TA100, Metabolic Activation: RAT, LIVER, PARENCHYMAL CELLS (CRYOPRESERVED), Method: PREINCUBATION) “inactive; negative”; (Test System: AMES SALMONELLA TYPHIMURIUM, Strain/Indicator: TA100, Metabolic Activation: RAT, LIVER, PARENCHYMAL CELLS (FRESHLY ISOLATED), Method: PREINCUBATION) “active; positive”; (Test System: AMES SALMONELLA TYPHIMURIUM, Strain/Indicator: TA100, Metabolic Activation: RAT, LIVER, S-9, AROCLOR 1254, Method: STANDARD PLATE) “active; positive”; (Test System: CHINESE HAMSTER V-79, Strain/Indicator: V-79/6-THIOGUANINE, Metabolic Activation: CELL-MEDIATED, Method: STANDARD PLATE) “active; positive”; (Test System: CHINESE HAMSTER V-79, Strain/Indicator: V-79/OUABAIN, Metabolic Activation: CELL-MEDIATED, Method: STANDARD PLATE) “active; positive”.
